What was measured:
[1] = biological target: T1, Melanocyte-stimulating hormone receptor (Homo sapiens, UniProt Q01726); test: Intrinsic agonist activity at human MC1R assessed as increase in alpha-MSH induced cAMP level by measuring maximum response relative to control; type: functional; details: filed as agonist
Target sequence in this assay (Q01726 whole entry, looked up): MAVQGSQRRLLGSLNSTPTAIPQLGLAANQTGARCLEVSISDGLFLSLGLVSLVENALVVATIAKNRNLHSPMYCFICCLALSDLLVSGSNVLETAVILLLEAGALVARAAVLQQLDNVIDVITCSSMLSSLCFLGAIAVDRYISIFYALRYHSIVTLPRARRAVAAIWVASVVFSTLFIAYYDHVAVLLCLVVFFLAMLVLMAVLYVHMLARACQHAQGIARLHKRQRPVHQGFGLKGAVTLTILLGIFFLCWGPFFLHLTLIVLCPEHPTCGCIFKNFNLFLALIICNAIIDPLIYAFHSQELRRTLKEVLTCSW

[2] = biological target: T1, Melanocyte-stimulating hormone receptor; test: Agonist activity at human MC1R assessed as increase in alpha-MSH induced cAMP level; type: functional
Target sequence in this assay (Q01726 whole entry): as the sequence (Q01726 whole entry, looked up) above

[3] = Metabolic stability in human assessed as intrinsic clearance measured per mg protein; type: ADME
[4] = biological target: T1, Melanocyte-stimulating hormone receptor; test: Agonist activity at human MC1R assessed as increase in alpha-MSH induced cAMP level at 10 uM relative to control; type: functional
Target sequence in this assay (Q01726 whole entry, looked up): as above

**Q.** What does the source list for `CC(C)(C)N1C[C@@H](C(=O)Nc2nccn2Cc2ccccc2)[C@H](c2ccc(F)cc2F)C1`?
**A.** Intrinsic activity [1]: 54%; EC50 [2]: 4660 nM

**Q.** With `CC(C)(C)N1C[C@@H](C(=O)Nc2nccn2Cc2ccccc2N2CCCCC2)[C@H](c2ccc(F)cc2F)C1.Cl` as the molecule, how does the Intrinsic activity [1] read?
**A.** 77%

**Q.** What about the EC50 [2] of the same molecule?
**A.** 339 nM

**Q.** And the CL [3]?
**A.** 610 µL/min

**Q.** For `CC(C)(C)N1C[C@@H](C(=O)Nc2nc3ccccc3n2Cc2ccccc2)[C@H](c2ccc(F)cc2F)C1`, which Activity ([4]; filed as agonist) is on record?
**A.** 53%

**Q.** What does the source list for `CC(C)(C)N1C[C@@H](C(=O)Nc2nccn2Cc2ccccc2-c2ccccc2)[C@H](c2ccc(F)cc2F)C1`?
**A.** Intrinsic activity [1]: 79%; EC50 [2]: 527 nM; CL [3]: 860 µL/min

**Q.** What does the source list for `CC(C)(C)N1C[C@@H](C(=O)Nc2ncnn2Cc2ccccc2)[C@H](c2ccc(F)cc2F)C1`?
**A.** EC50 [2]: > 10000 nM; Activity [4]: 3.7%

**Q.** For `CC(C)(C)N1C[C@@H](C(=O)Nc2nccn2Cc2ccccc2Cl)[C@H](c2ccc(F)cc2F)C1`, which Intrinsic activity [1] is on record?
**A.** 65%

**Q.** And the EC50 [2]?
**A.** 1270 nM

**Q.** With `CC(C)(C)N1C[C@@H](C(=O)Nc2nc3ccccc3n2CCc2ccccc2)[C@H](c2ccc(F)cc2F)C1` as the molecule, how does the EC50 [2] read?
**A.** > 10000 nM

**Q.** And the Activity [4]?
**A.** 7.5%

**Q.** For `CC(C)(C)N1C[C@@H](C(=O)Nc2nccn2Cc2ccccc2N2CCC(CC(=O)O)CC2)[C@H](c2ccc(F)cc2F)C1`, which EC50 [2] is on record?
**A.** 1980 nM

**Q.** What about the CL [3] of the same molecule?
**A.** 39 µL/min

**Q.** What about the Activity ([4]; filed as agonist) of the same molecule?
**A.** 64%

**Q.** For `CC(C)(C)N1C[C@@H](C(=O)Nc2nccn2Cc2ccc(C(F)(F)F)cc2N2CCC(C(=O)O)CC2)[C@H](c2ccc(F)cc2F)C1`, which Intrinsic activity [1] is on record?
**A.** 158%

**Q.** What about the EC50 [2] of the same molecule?
**A.** 77 nM

**Q.** And the CL [3]?
**A.** 25 µL/min

**Q.** What does the source list for `CC(C)(C)N1C[C@@H](C(=O)Nc2nccn2Cc2cccc(Cl)c2)[C@H](c2ccc(F)cc2F)C1`?
**A.** Intrinsic activity [1]: 50%; EC50 [2]: 1270 nM

**Q.** Which EC50 [2] does the source give for `CC(C)(C)N1C[C@@H](C(=O)Nc2ccccc2Cc2ccccc2)[C@H](c2ccc(F)cc2F)C1` here?
**A.** > 10000 nM

**Q.** What about the Activity [4] of the same molecule?
**A.** 2.8%

**Q.** Which results are given for `CC(C)(C)N1C[C@@H](C(=O)Nc2nccn2Cc2ccc(Cl)cc2)[C@H](c2ccc(F)cc2F)C1`?
**A.** EC50 [2]: > 10000 nM; Activity [4]: 18%

**Q.** What does the source list for `CC(C)(C)N1C[C@@H](C(=O)Nc2nc3ccccc3n2-c2ccccc2)[C@H](c2ccc(F)cc2F)C1`?
**A.** EC50 [2]: > 10000 nM; Activity [4]: 7%

**Q.** Which Intrinsic activity [1] does the source give for `Cc1ccc(Cn2ccnc2NC(=O)[C@@H]2CN(C(C)(C)C)C[C@H]2c2ccc(F)cc2F)c(N2CCC(C(=O)O)CC2)c1` here?
**A.** 101%

**Q.** And the EC50 [2]?
**A.** 318 nM

**Q.** And the CL [3]?
**A.** 28 µL/min

**Q.** With `CC(C)(C)N1C[C@@H](C(=O)Nc2nccn2Cc2ccccc2N2CCOCC2)[C@H](c2ccc(F)cc2F)C1.Cl` as the molecule, how does the Intrinsic activity [1] read?
**A.** 86%

**Q.** What about the EC50 [2] of the same molecule?
**A.** 219 nM

**Q.** And the CL [3]?
**A.** 660 µL/min

**Q.** What does the source list for `CC(C)(C)N1C[C@@H](C(=O)Nc2nccn2Cc2ccccc2N2CCC(C(=O)O)CC2)[C@H](c2ccc(F)cc2F)C1`?
**A.** Intrinsic activity [1]: 104%; EC50 [2]: 460 nM; CL [3]: < 10 µL/min

**Q.** With `CC(C)(C)N1C[C@@H](C(=O)Nc2nccn2Cc2ccccc2N2CCC(C(N)=O)CC2)[C@H](c2ccc(F)cc2F)C1.Cl` as the molecule, how does the Intrinsic activity [1] read?
**A.** 80%

**Q.** And the EC50 [2]?
**A.** 386 nM

**Q.** And the CL [3]?
**A.** 450 µL/min

**Q.** For `Cn1c(NC(=O)[C@@H]2CN(C(C)(C)C)C[C@H]2c2ccc(F)cc2F)nc2ccccc21`, which EC50 [2] is on record?
**A.** > 10000 nM

**Q.** And the Activity [4]?
**A.** 2.5%

From ChEMBL document CHEMBL5150041, “Discovery of novel N-(1-benzyl-1H-imidazol-2-yl)amide derivatives as melanocortin 1 receptor agonists” (Bioorg Med Chem Lett, 2022)
